Source: patent US20100069402A1, “Treatment of Behavioral Disorders” (priority 2004, published 2010)

How the values were obtained:
Assay type in all cases: in vivo
[1] = test system: children with ADHD and allergic rhinitis; assay: STUDY A: allergic rhinitis measures (rhinoconjunctivitis symptoms, RQLQ); conditions: children 8-18 years with ADHD and seasonal allergic rhinitis; po qam for 2 weeks
Experimental: (§1) In general, two studies were conducted to better understand the association between the allergy/immune system and the central nervous system. STUDY A, tested the effects of cetirizine (namely ZYRTEC), cetirizine and methylphenidate (namely RITALIN SR), and methylphenidate, versus placebo on attention, memory, and behavior in children with ADHD and allergic rhinitis. STUDY B assessed NGF response to cetirizine and methylphenidate treatment in children with ADHD and allergic rhinitis.
(§2) The individuals chosen to be a part of these studies had the following characteristics:
(§3) All subjects were randomized into one of four treatment groups as follows:
(§4) 1) cetirizine alone: 10 mg po qam for 2 weeks;
(§5) 2) Combination of cetirizine and methylphenidate: 10 mg po qam RITALIN SR (20 mg if <65 kg; 40 mg if ≧65 kg) po qam for 2 weeks;
(§6) 3) Methylphenidate alone: (20 mg if <65 kg; 40 mg if ≧65 kg) po qam for 2 weeks; and
1) Rhinoconjunctivitis Symptoms
2) Total Symptom Severity Complex, (TSSC)
3) Adolescent Rhinoconjunctivitis Quality of Life Questionnaire, (RQLQ)

[2] = test system: children with ADHD and allergic rhinitis; assay: STUDY A: ADHD measures, Conners' Rating Scale t-scores; conditions: po qam for 2 weeks; for hyperactivity t-scores (FIG. 1): evaluation of the ADHD parameters
Experimental: as §1, §2, §3, §4, §5, §6
5) Conners' Rating Scale—Revised, (CRS)

NGF = assay: STUDY B: serum NGF assay by ELSA (Enzyme-Linked Immunosorbent Assay); conditions: children with ADHD and allergies; po qam for 2 weeks; NGF highest on placebo
Experimental: as §1, §2, §3, §4, §5
3) Methylphenidate alone: (20 mg if <65 kg; 40 mg if ≧65 kg) po qam for 2 weeks; and […]

| SMILES | RQLQ emotional symptoms, change from baseline [1] | RQLQ nasal symptoms [1] | rhinoconjuctivitis quality of life scores [1] | hyperactivity t-scores (FIG. 1) [2] | parental Conner's report: ADHD score [2] | parental Conner's report: hyperactivity score [2] | parental Conner's report: inattention score [2] | parental Conner's report: oppositional score [2] | serum NGF level versus placebo (NGF) |
| --- | --- | --- | --- | --- | --- | --- | --- | --- | --- |
| O=C(O)COCCN1CCN(C(c2ccccc2)c2ccc(Cl)cc2)CC1 (stereo not drawn) [cetirizine] | similar | methylphenidate had a superior effect compared to cetirizine | methylphenidate had a superior effect compared to cetirizine | no difference was noted | no difference was recorded | no difference was recorded | no difference was recorded | no difference was recorded | downregulated to the same extent |
| COC(=O)C(c1ccccc1)C1CCCCN1 (stereo not drawn) [methylphenidate] | similar | superior effect compared to cetirizine | superior effect compared to cetirizine | no difference was noted | no difference was recorded | no difference was recorded | no difference was recorded | no difference was recorded | downregulated to the same extent |
